Where two headings read alike, the source gives them in different places.
Tests used:
tumor cells = assay: Cytostatic and cytotoxic activity; assay type: cell-based; settings: FIGS. 3A and 3B, compared with sulindac sulfide
From the text: Cytotoxic activity is defined as the ability the treatment to reduce cell number below the number when treatment was initiated and is an indicator of chemotherapeutic efficacy. Cytostasis is defined as the ability of the treatment to reduce cell number relative to untreated cells and is an indicator of chemopreventive efficacy.

[1] = tested on: human HT29 colon tumor cell line; assay: Growth inhibitory activity / in vitro cytotoxicity against human HT29 colon tumor cells
From the text: These toxicities include gastrointestinal, renal and hematological disturbances which results from COX-1 inhibition as well as cardiovascular toxicity which likely results from COX-2 inhibition.

[2] = Toxicity in mice, maximum tolerated dose; assay type: in vivo
Procedure: FIGS. 5A and 5B show the reduced toxicity of SRI 21009 in mice relative to sulindac. Following a once a day dosing schedule, the maximum tolerated dose of sulindac is estimated to be 50 mg/kg in comparison to 300 mg/kg for SRI 21009.

[3] = Oral bioavailability, plasma levels after oral administration; assay type: in vivo
COX-1 = COX-1 (Homo sapiens, UniProt P23219); assay: COX-1 inhibitory activity; assay type: biochemical
COX-1, sequence (P23219 24-599): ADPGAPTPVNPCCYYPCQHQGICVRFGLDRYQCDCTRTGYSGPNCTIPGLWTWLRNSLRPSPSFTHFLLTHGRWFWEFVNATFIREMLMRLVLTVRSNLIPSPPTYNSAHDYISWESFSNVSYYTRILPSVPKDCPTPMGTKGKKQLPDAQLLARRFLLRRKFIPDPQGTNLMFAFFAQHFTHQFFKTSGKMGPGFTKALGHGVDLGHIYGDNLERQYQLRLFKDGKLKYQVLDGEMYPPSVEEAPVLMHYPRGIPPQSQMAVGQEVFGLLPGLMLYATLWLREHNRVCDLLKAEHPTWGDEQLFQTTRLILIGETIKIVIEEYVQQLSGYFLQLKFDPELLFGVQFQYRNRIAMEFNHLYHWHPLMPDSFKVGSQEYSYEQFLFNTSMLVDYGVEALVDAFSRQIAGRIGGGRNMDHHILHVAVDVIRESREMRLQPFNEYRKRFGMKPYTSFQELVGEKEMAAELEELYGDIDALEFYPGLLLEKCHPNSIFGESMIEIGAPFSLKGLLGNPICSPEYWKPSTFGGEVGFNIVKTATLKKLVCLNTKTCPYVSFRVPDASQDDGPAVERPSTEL

[4] = tested on: human colon HT29 colon tumor cells; assay: Antitumor activity in athymic nude mice implanted with HT29 tumor cells; assay type: in vivo; settings: 300 mg/kg, once a day dosing schedule, HT29 xenograft
COX-2 = target: T1, COX-2 (Homo sapiens, UniProt P35354); assay: COX-2 inhibitory activity; assay type: biochemical
T1 sequence (P35354 18-604): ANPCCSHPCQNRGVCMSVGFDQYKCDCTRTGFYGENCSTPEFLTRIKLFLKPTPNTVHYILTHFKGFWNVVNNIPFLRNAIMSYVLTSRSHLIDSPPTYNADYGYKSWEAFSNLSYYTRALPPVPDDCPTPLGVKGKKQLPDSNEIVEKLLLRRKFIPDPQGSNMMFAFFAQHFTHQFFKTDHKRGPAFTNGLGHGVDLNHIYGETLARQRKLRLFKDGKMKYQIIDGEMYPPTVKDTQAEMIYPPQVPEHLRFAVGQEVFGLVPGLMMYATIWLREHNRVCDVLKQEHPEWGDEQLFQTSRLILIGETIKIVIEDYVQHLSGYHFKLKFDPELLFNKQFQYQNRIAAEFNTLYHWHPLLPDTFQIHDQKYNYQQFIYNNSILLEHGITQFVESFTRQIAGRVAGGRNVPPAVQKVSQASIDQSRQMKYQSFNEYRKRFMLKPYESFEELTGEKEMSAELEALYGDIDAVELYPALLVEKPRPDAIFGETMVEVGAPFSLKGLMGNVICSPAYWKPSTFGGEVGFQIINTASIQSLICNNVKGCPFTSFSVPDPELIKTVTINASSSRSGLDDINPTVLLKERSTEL

[5] = tested on: panel of histologically diverse tumor cell types; assay: Growth inhibitory activity against a panel of tumor cell types; assay type: cell-based; settings: FIG. 2
[6] = Homo sapiens, HT-29, read-out: IC50 value, growth inhibitory activity
[7] = Homo sapiens, HT-29, read-out: cytotoxity IC50 values (50% inhibitory concentration)
[8] = read-out: IC50 value, growth inhibitory activity, human HT29 colon tumor cell line, Table B upper part
[9] = read-out: IC50, growth inhibitory activity, human HT29 colon tumor cell line, Table B lower part

CC1=C(CC(=O)NCCN(C)C)c2cc(F)ccc2C1=Cc1ccc([S+](C)[O-])cc1 (centres unmarked) [SRI 21004, N-[2-(Dimethylamino)ethyl]-5-fluoro-2-methyl-1-[[4-(methylsulfinyl)phenyl]methylene]-1H-indene-3-acetamide]
cytotoxic activity (reduce cell number below the number when treatment was initiated) (tumor cells): greater potential for chemotherapeutic efficacy compared with sulindac sulfide
IC50 [1, 6]: 25.1 µM
IC50 [1, 7]: 29.2 µM

CC1=C(CC(=O)NCC2CCCN2C)c2cc(F)ccc2C1=Cc1ccc([S+](C)[O-])cc1 (centres unmarked) [SRI 21008, 5-Fluoro-2-methyl-N-[(1-methyl-2-pyrrolidinyl)methyl]-1-[[4-(methylsulfinyl)phenyl]methylene]-1H-indene-3-acetamide]
IC50 [1, 6]: 18.7 µM

CSc1ccc(/C=C2/C(C)=C(CC(=O)NCCN(C)C)c3cc(F)ccc32)cc1 [SRI 21009, N-[2-(Dimethylamino)ethyl]-5-fluoro-2-methyl-1-[[4-(methylsulfide)phenyl]methylene]-1H-indene-3-acetamide]
MTD ([2]; mouse, in vivo): ~300 mg/kg
sulindac sulfoxide, sulfone, or sulfide detected in the plasma ([3]; following SRI 21009 administration): Negligible amounts
achievable plasma levels ([3]; oral administration, single dose of 200 mg/kg): exceeded the IC50 value for in vitro growth inhibition
IC50 (COX-1): 1480 µM
IC50 [1, 6]: 1.47 µM
IC50 [1, 7]: 1.47 µM
antitumor activity [4]: as effective as sulindac at 50 mg/kg
IC50 (COX-2): 164 µM
growth inhibitory activity across tumor cell types [5]: enhanced sensitivity of tumor cells derived from colorectal tumors compared with other tumor types

CC1=C(CC(=O)NCCN2CCNCC2)c2cc(F)ccc2C1=Cc1ccc([S+](C)[O-])cc1 (centres unmarked) [SRI 21113, 5-Fluoro-2-methyl-1-[[4-(methylsulfinyl)phenyl]methylene]-N-[2-(1-piperazinyl)ethyl]-1H-indene-3-acetamide]
IC50 [1, 6]: 76.9 µM

CC1=C(CC(=O)NCCN2CCCCC2)c2cc(F)ccc2C1=Cc1ccc([S+](C)[O-])cc1 (centres unmarked) [SRI 21114, 5-Fluoro-2-methyl-1-[[4-(methylsulfinyl)phenyl]methylene]-N-[2-(1-piperidinyl)ethyl]-1H-indene-3-acetamide]
IC50 [1, 6]: 19.7 µM

CC1=C(CC(=O)NCCc2cccnc2)c2cc(F)ccc2C1=Cc1ccc([S+](C)[O-])cc1 (centres unmarked) [SRI 21162, 5-Fluoro-2-methyl-1-[[4-(methylsulfinyl)phenyl]methylene]-N-[2-(3-pyridinyl)ethyl]-1H-indene-3-acetamide]
IC50 [1, 6]: 99.8 µM

CC1=C(CC(=O)NCCN2CCCC2)c2cc(F)ccc2C1=Cc1ccc([S+](C)[O-])cc1 (centres unmarked) [SRI 21169, 5-Fluoro-2-methyl-1-[[4-(methylsulfinyl)phenyl]methylene]-N-[2-(1-pyrrolidinyl)ethyl]-1H-indene-3-acetamide]
IC50 [1, 6]: 17.2 µM

CC1=C(CC(=O)NCCN2CCOCC2)c2cc(F)ccc2C1=Cc1ccc([S+](C)[O-])cc1 (centres unmarked) [SRI 21178, 5-Fluoro-2-methyl-1-[[4-(methylsulfinyl)phenyl]methylene]-N-[2-(4-morpholinyl)ethyl]-1H-indene-3-acetamide]
IC50 [1, 6]: 114 µM

CC1=C(CC(=O)NCCN)c2cc(F)ccc2C1=Cc1ccc([S+](C)[O-])cc1 (centres unmarked) [SRI 21185, N-(2-Aminoethyl)-5-fluoro-2-methyl-1-[[4-(methylsulfinyl)phenyl]methylene]-1H-indene-3-acetamide]
IC50 [1, 6]: 85.2 µM

CC1=C(CC(=O)NCCc2c[nH]cn2)c2cc(F)ccc2C1=Cc1ccc([S+](C)[O-])cc1 (centres unmarked) [SRI 21229]
IC50 [1, 8]: 32.6 µM

CC1=C(CC(=O)NCc2ccc(N(C)C)cc2)c2cc(F)ccc2C1=Cc1ccc([S+](C)[O-])cc1 (centres unmarked) [SRI 21275, N-[[4-(Dimethylamino)phenyl]methyl]-5-fluoro-2-methyl-1-[[4-(methylsulfinyl)phenyl]methylene]-1H-indene-3-acetamide]
IC50 [1, 6]: 6.3 µM

CCN(CC)CCNC(=O)CC1=C(C)C(=Cc2ccc([S+](C)[O-])cc2)c2ccc(F)cc21 (centres unmarked) [SRI 21276]
IC50 [1, 8]: 18.2 µM

CC1=C(CC(=O)N2CCN(C)CC2)c2cc(F)ccc2C1=Cc1ccc([S+](C)[O-])cc1 (centres unmarked) [SRI 21387, Ethanone, 2-[5-fluoro-2-methyl-1-[[4-(methylsulfinyl)phenyl]methylene]-1H-inden-3-yl]-1-(4-methylpiperazinyl)]
IC50 [1, 9]: 71 µM

CC1=C(CC(=O)NCCN(C)C)c2cc(F)ccc2/C1=C\c1ccc(S(C)(=O)=O)cc1 [SRI 21487]
IC50 [1, 9]: 10 µM

CSc1ccc(/C=C2/C(C)=C(CC(=O)NCc3ccc(N(C)C)cc3)c3cc(F)ccc32)cc1 [SRI 21540, N-[[4-(Dimethylamino)phenyl]methyl]-(Z)-5-fluoro-2-methyl-3-[[4-(methylthio)phenyl]methylene]-1H-indene-3-acetamide]
IC50 [1, 9]: 3.22 µM

CC1=C(CC(=O)Nc2ccc(N(C)C)cc2)c2cc(F)ccc2/C1=C\c1ccc([S+](C)[O-])cc1 (centres unmarked) [SRI 21590, N-[[4-(Dimethylamino)phenyl]-(Z)-5-fluoro-2-methyl-3-[[4-(methylsulfinyl)phenyl]methylene]]-1H-indene-3-acetamide]
IC50 [1, 9]: 230 µM

CNCCN(C)C(=O)CC1=C(C)/C(=C/c2ccc(SC)cc2)c2ccc(F)cc21 [SRI 21596]
IC50 [1, 9]: 1.62 µM

CSc1ccc(/C=C2/C(C)=C(CC(=O)Nc3ccc(N(C)C)cc3)c3cc(F)ccc32)cc1 [SRI 21623, N-[[4-(Dimethylamino)phenyl]-(Z)-5-fluoro-2-methyl-3-[[4-(methylthio)phenyl]methylene]]-1H-indene-3-acetamide]
solubility during the bioassay [1]: solubility issues during the bioassay
IC50 [1, 9]: > 100 µM

CSc1ccc(/C=C2/C(C)=C(CC(=O)O)c3cc(F)ccc32)cc1 [Sulindac sulfide, reference compound]
IC50 [1, 6]: 45.2 µM
IC50 [1, 7]: 71.2 µM

CC1=C(CC(=O)O)c2cc(F)ccc2/C1=C\c1ccc([S+](C)[O-])cc1 (centres unmarked) [Sulindac sulfoxide, Sulindac]
maximum tolerated dose ([2]; mice, once a day dosing schedule): ~50 mg/kg
IC50 [1, 8]: 450 µM
IC50 ([1]; read-out: cytotoxity IC50 values (50% inhibitory concentration), human colon tumor cells, in vitro): 479 µM

N,2-Dimethyl-N-[2-(dimethylamino)ethyl]-5-fluoro-1-[[4-ethylsulfinyl)phenyl]methylene]-1H-indene-3-acetamide [SRI 21179]
IC50 [1, 8]: 19.8 µM
